Data: patent US10844049B2, “GLP-1R agonists and uses thereof” (QILU REGOR THERAPEUTICS INC., priority 2018, dated 2020)

target: T1, GLP1R (Homo sapiens, UniProt P43220); assay: GLP1R cAMP assay, CHO cells stably expressing human GLP-1R; type: cell-based; details: CHO cells, mean ± spread, read-out: CHO cells EC50
Procedure: GLP-1R-mediated agonist activity was determined with a cell-based functional assay utilizing an HTRF (Homogeneous Time-Resolved Fluorescence) cAMP detection kit (cAMP Dynamic 2 Assay Kit; CisBio cat #62AM4PEC) that measures cAMP levels in the cell. The method is a competitive immunoassay between native cAMP produced by the cells and exogenous cAMP labeled with the dye d2. The tracer binding is visualized by a mAb anti-cAMP labeled with Cryptate. The specific signal (i.e., energy transfer) is inversely proportional to the concentration of cAMP in either standard or experimental sample.
Varying concentrations of each compound to be tested (in DMSO) were diluted in DMSO to obtain 200× compound working solution first and then 50 nl compounds were added to a white 384-well assay plate (Greiner 784075) with ECHO. The final DMSO concentration was 0.5%. The compound concentration range may be adjusted at any time.
Cells were removed from cryopreservation, re-suspended in 5 mL of Dulbecco's Phosphate Buffered Saline (DPBS-Sigma Cat # D8537) and centrifuged at 900 g for 5 min at 22° C. The cell pellet was then re-suspended in 1 mL of assay buffer [DPBS with 500 μM IBMX (Sigma #15879) and 0.1% BSA (Sigma # A1933). IBMX and BSA were freshly added on the day of assay]. A 10 μL sample of the cell suspension was counted on an Invitrogen Countess II to determine cell viability and cell count per mL. The remaining cell suspension was then adjusted with assay buffer to deliver 1000 viable cells per well using a Matrix Combi Multidrop reagent dispenser. 10 μL cell suspensions were added to each well of the assay plate which already contains compound. The plate was sealed and incubated at 37° C. with 5% CO2 for 30 minutes.
Following the 30 minute incubation, 5 μL of labeled d2 cAMP and 5 μL of anti-cAMP antibody (both diluted 1:20 in cell lysis buffer; as described in the manufacturer's assay protocol) were added to each well of the assay plate. The plates w ere then incubated at room temperature and after 60 minutes, changes in the HTRF signal were read with an Envision multi-label plate reader using excitation of 330 nm and emissions of 615 and 665 nm. Raw data were converted to nM cAMP by interpolation from a cAMP standard curve (as described in the manufacturer's assay protocol) and the percent effect was determined relative to a saturating concentration of the full agonist GLP-17-37 (10 nM) included on each plate. EC50 determinations were made from agonist dose-response curves analyzed with a curve fitting program using a 4-parameter logistic dose response equation. […]

T1 sequence (P43220 24-463): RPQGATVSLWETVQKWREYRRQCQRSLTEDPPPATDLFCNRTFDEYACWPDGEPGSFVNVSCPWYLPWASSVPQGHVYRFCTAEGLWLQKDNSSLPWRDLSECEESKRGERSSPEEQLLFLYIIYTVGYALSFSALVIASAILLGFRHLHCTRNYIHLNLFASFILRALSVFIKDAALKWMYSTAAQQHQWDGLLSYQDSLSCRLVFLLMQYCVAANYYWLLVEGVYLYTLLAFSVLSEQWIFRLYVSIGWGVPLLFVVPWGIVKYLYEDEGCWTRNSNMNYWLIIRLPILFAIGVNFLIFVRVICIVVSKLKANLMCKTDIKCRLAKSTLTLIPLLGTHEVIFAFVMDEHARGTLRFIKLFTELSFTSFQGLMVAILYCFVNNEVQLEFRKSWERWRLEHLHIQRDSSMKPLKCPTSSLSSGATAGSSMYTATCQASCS

| Compound | EC50 |
| --- | --- |
| O=C(O)c1ccc2nc(CN3CC=C(c4cccc(OCc5ccc(Cl)cc5F)c4)CC3)n(C[C@@H]3CCO3)c2c1 [drawing 67] | 42.6 ± 11.5 nM |
| N#Cc1ccc(COc2cncc(C3=CCN(Cc4nc5ccc(C(=O)O)cc5n4C[C@@H]4CCO4)CC3)n2)c(F)c1 [drawing 63] | 260 ± 38 nM |

target: T1, GLP1R; assay: GLP1R cAMP HTRF assay, HEK293/GLP-1R/CRE/Luc (HEK293T cells); type: cell-based; details: mean ± spread, read-out: HEK293T cells EC50
In short: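 cAMP accumulation via HTRF after 30 min, 37 °C exposure of 1000 receptor-expressing cells/well to compound (0.5% DMSO final) in IBMX (500 μM)/0.1% BSA DPBS.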

| Compound | EC50 |
| --- | --- |
| O=C(O)c1ccc2nc(CN3CC=C(c4cccc(OCc5ccc(Cl)cc5F)c4)CC3)n(C[C@@H]3CCO3)c2c1 [drawing 67] | 3.94 nM |
| N#Cc1ccc(COc2cncc(C3=CCN(Cc4nc5ccc(C(=O)O)cc5n4C[C@@H]4CCO4)CC3)n2)c(F)c1 [drawing 63] | 9.85 nM |

same assay, conditions: read-out: EC50

| Compound | EC50 |
| --- | --- |
| O=C(O)c1ccc2nc(CN3CCN(c4ccc(=O)n(CCc5ccc(Cl)cc5F)n4)CC3)n(C[C@@H]3CCO3)c2c1 [Compound 6, (S)-2-((4-(1-(4-chloro-2-fluorophenethyl)-6-oxo-1,6-dihydropyridazin-3-yl)piperazin-1-yl)methyl)-1-(oxetan-2-ylmethyl)-1 h-benzo[d]imidazole-6-carboxylic add] | > 1000 nM |
| CCOc1ccc(COc2cccc(C3=CCN(Cc4nc5ccc(C(=O)O)cc5n4C[C@@H]4CCO4)CC3)n2)cc1OC [Compound 166, (S)-2((6-((4-ethoxy-3-methoxybenzyl)oxy)-3′,6′-dihydro-[2,4′-bipyridin]-1′(2′H)-yl)methyl)-1-(oxetan-2-ylmethyl)-1H-benzo[d]imidazole-6-carboxylic acid] | ≤ 150 nM |
| O=C(O)c1ccc2nc(CN3CC=C(c4cccc(OCc5ccncc5)n4)CC3)n(C[C@@H]3CCO3)c2c1 [Compound 160, (S)-1-(oxetan-2-ylmethyl)-2-((6-(pyridin-4-ylmethoxy)-5′,6′-dihydro-[2H′-bipyridin]-1′(2′H)-yl)methyl)-1H-benzo[d]imidazole-6-carboxylic acid] | ≤ 150 nM |
| O=C(O)c1ccc2nc(CN3CC=C(c4cc(NCc5ccc(Cl)cc5F)ccc4F)CC3)n(C[C@@H]3CCO3)c2c1 [Compound 127, (S)-2-((4-(5-((4-chloro-2-fluorobenzyl)amino)-2-fluorophenyl)-3,6-dihydropyridin-1(2H)-yl)methyl)-1-(oxetan-2-ylmethyl)-1H-benzo[d]imidazole-6-carboxylic acid] | ≤ 150 nM |
| N#Cc1ccc2nc(CN3CC=C(c4cccc(OCc5ccc(Cl)cc5F)n4)CC3)n(C[C@@H]3CCO3)c2c1 [Compound 71, (S)-2-((4-(6-(4-chloro-2-fluorobenzyloxy)pyridin-2-yl)-5,6-dihydropyridin-1(2H)-yl)methyl)-1-(oxetan-2-ylmethyl)-1H-benzo[d]imidazole-6-carbonitrile] | > 1000 nM |
| O=C(O)c1ccc2nc(CN3CC=C(c4cc(OCc5ccc(Cl)cc5F)ncc4F)CC3)n(C[C@@H]3CCO3)c2c1 [Compound 128, (S)-2-((2′-((4-chloro-2-fluorobenzyl)oxy)-5′-fluoro-3,6-dihydro-[4,4′-bipyridin]-1(2H)-yl)methyl)-1-(oxetan-2-ylmethyl)-1H-benzo[d]imidazole-6-carboxylic acid] | ≤ 150 nM |
| O=C(O)c1ccc2nc(CN3CC=C(c4cccc(OCc5ccccc5F)n4)CC3)n(C[C@@H]3CCO3)c2c1 [Compound 155, (S)-2-((6-((2-fluorobenzyl)oxy)-3′,6′-dihydro-[2H′-bipyridin]-1′(2′H)-yl)methyl)-1-(oxetan-2-ylmethyl)-1H-benzo[d]imidazole-6-carboxylic acid] | ≤ 15 nM |
| O=C(O)c1ccc2nc(CN3CC=C(c4cc(-c5ccccc5)cc(OCc5ccc(Cl)cc5F)n4)CC3)n(C[C@@H]3CCO3)c2c1 [Compound 109] | ≤ 1000 nM |
| O=C(O)c1ccc2nc(CN3CC=C(c4nccc(NCc5ccc(Cl)cc5F)n4)CC3)n(C[C@@H]3CCO3)c2c1 [Compound 124, (S)-2-((4-(4-((4-chloro-2-fluorobenzyl)amino)pyrimidin-2-yl)-5,6-dihydropyridin-1(2H)-yl)methyl)-1-(oxetan-2-ylmethyl)-1H-benzo[d]imidazole-6-carboxylic add] | ≤ 1000 nM |
| O=C(O)c1ccc2nc(CN3CCC(N4CCc5ccc(-c6ccc(Cl)cc6F)cc5C4=O)CC3)n(C[C@@H]3CCO3)c2c1 [Compound 54, (S)-2-((4-(7-(4-chloro-2-fluorophenyl)-1-oxo-3,4-dihydroisoquinolin-2(1H)-yl)piperidin-1-yl)methyl)-1-(oxetan-2-ylmethyl)-1 h-benzo[d]imidazole-6-carboxylic acid] | > 1000 nM |
| COc1ccc(COc2cccc(C3=CCN(Cc4nc5ccc(C(=O)O)cc5n4C[C@@H]4CCO4)CC3)n2)cc1 [Compound 118, (S)-2-((6-((4-methoxybenzyl)oxy)-3′,6′-dihydro-[2,4′-bipyridin]-1′(2H)-yl)methyl)-1-(oxetan-2-ylmethyl)-1H-benzo[d]imidazole-6-carboxylic acid] | ≤ 15 nM |
| O=C(O)c1ccc2nc(CN3CC=C(c4cccc(OCc5ccnc(Cl)c5)n4)CC3)n(C[C@@H]3CCO3)c2c1 [Compound 162, (S)-2-((6-((2-chloropyridin-4-yl)methoxy)-3′,6′-dihydro-[2,4′-bipyridin]-1′(2′H)-yl)methyl)-1-(oxetan-2-ylmethyl)-1H-benzo[d]imidazole-6-carboxylic acid] | ≤ 150 nM |
| O=C(O)c1ccc2nc(CN3CC=C(c4ccnc(OCc5ccc(F)cc5F)n4)CC3)n(C[C@@H]3CCO3)c2c1 [Compound 215, (S)-2-((4-(2-((2H-difluorobenzyl)oxy)pyrimidin-4-yl)-3,6-dihydropyridin-1(2H)-yl)methyl)-1-(oxetan-2-ylmethyl)-1H-benzo[d]imidazole-6-carboxylic acid] | ≤ 150 nM |
| O=C(O)c1ccc2nc(CN3CC=C(c4cccc(OCc5ccccc5Cl)n4)CC3)n(C[C@@H]3CCO3)c2c1 [Compound 136, (S)-2-((6-((2-chlorobenzyl)oxy)-3′,6′-dihydro-[2,4′-bipyridin]-1′(2′H)-yl)methyl)-1-(oxetan-2-ylmethyl)-1H-benzo[d]imidazole-6-carboxylic acid] | ≤ 15 nM |
| O=C(O)c1ccc2nc(CN3CC(=O)N(c4cccc(OCc5ccc(Cl)cc5F)n4)CC3=O)n(C[C@@H]3CCO3)c2c1 [Compound 168, (S)-2-((4-(6-(4-chloro-2-fluorobenzyloxy)pyridin-2-yl)-2,5-dioxopiperazin-1-yl)methyl)-1-(oxetan-2-ylmethyl)-1H-benzo[d]imidazole-6-carboxylic acid] | ≤ 15 nM |
| (S)-2-((4-(2-((4-(cyclopropylethynyl)-2-fluorobenzyl)oxy)pyrimidin-4-yl)piperazin-1-yl)methyl)-1-(oxetan-2-ylmethyl)-1H-benzo[d]imidazole-6-carboxylic add [Compound 194] | ≤ 150 nM |
| O=C(O)c1ccc2nc(CN3CCN(c4nccc(OCc5ccc(Cl)cc5F)n4)CC3)n(C[C@@H]3CCO3)c2c1 [Compound 181, (S)-2-((4-(4-((4-chloro-2-fluorobenzyl)oxy)pyrimidin-2-yl)piperazin-1-yl)methyl)-1-(oxetan-2-ylmethyl)-1H-benzo[d]imidazole-6-carboxylic acid] | ≤ 15 nM |
| O=C(O)c1cc2c(cc1F)nc(CN1CC=C(c3cccc(OCc4ccc(Cl)cc4F)n3)CC1)n2C[C@@H]1CCO1 [Compound 172, (S)-2-((6-((4-chloro-2-fluorobenzyl)oxy)-3′,6′-dihydro-[2H′-bipyridin]-1′(2′H)-yl)methyl)-5-fluoro-1-(oxetan-2-ylmethyl)-1H-benzo[d]imidazole-6-carboxylic acid] | ≤ 15 nM |
| CN(Cc1ccc(Cl)cc1F)c1cccc(N2CCN(Cc3nc4ccc(C(=O)O)cc4n3C[C@@H]3CCO3)CC2)n1 [Compound 2, (S)-2-((4-(6-((4-chloro-2-fluorobenzyl)(methyl)amino)pyridin-2-yl)piperazin-1-yl)methyl)-1-(oxetan-2-ylmethyl)-1 h-benzo[d]imidazole-6-carboxylic acid] | > 1000 nM |
| O=C(O)c1ccc2nc(CN3CC=C(c4cccc(OCc5cccc(Cl)c5)n4)CC3)n(C[C@@H]3CCO3)c2c1 [Compound 137, (S)-2-((6-((3-chlorobenzyl)oxy)-3′,6′-dihydro-[2,4′-bipyridin]-1′(2′H)-yl)methyl)-1-(oxetan-2-ylmethyl)-1H-benzo[d]imidazole-6-carboxylic add] | ≤ 1000 nM |
| O=C(O)c1ccc2nc(CN3CC=C(c4cccc(OCc5ccc(-n6ccnn6)cc5)n4)CC3)n(C[C@@H]3CCO3)c2c1 [Compound 244, (S)-2-((6-((4-(1H-1,2,3-triazol-1-yl)benzyl)oxy)-3′,6′-dihydro-[2,4′-bipyridin]-1′(2′H)-yl)methyl)-1-(oxetan-2-ylmethyl)-1H-benzo[d]imidazole-6-carboxylic add] | ≤ 15 nM |
| O=C(O)c1ccc2nc(CN3CC=C(c4cccc(OCc5ccc6c(c5)OCO6)n4)CC3)n(C[C@@H]3CCO3)c2c1 [Compound 152] | ≤ 15 nM |
